ChEMBL document CHEMBL1177697, “Evolution of poly(ADP-ribose) polymerase-1 (PARP-1) inhibitors. From concept to clinic” (J Med Chem, 2010)

How the values were obtained:
[1] = molecular target: T1, Poly [ADP-ribose] polymerase 1 (Homo sapiens, UniProt P09874)
[2] = system: LoVo; assay: Potentiation of TMZ-induced antiproliferation against human LoVo cells at 0.4 uM; format: functional
[3] = system: Rattus norvegicus; assay: Cardioprotective effect in rat cardiac ischemia model assessed as reduction in infarct size at 80 mg/kg, iv administered prior to reperfusion; format: functional, Heart; parameters: scale not given: the % may be the effect or the level left
[4] = system: Rattus norvegicus; assay: Neuroprotective effect in rat transient MCAO model assessed as reduction in infarct volume at 40 mg/kg, iv administered prior to reperfusion; parameters: scale not given: the % may be the effect or the level left
[5] = Half life in human patient at 2.8 mg/kg, iv; format: ADME, organism-based; parameters: dose 2.8 mg/kg, route intravenous; settings: in vivo
[6] = Half life in human patient at 200 to 800 mg, iv; format: ADME, organism-based; settings: in vivo
[7] = molecular target: Poly [ADP-ribose] polymerase 2 (Homo sapiens, UniProt Q9UGN5); assay: Inhibition of PARP2
[8] = system: Rattus norvegicus; assay: Neuroprotective effect in rat transient MCAO model assessed as reduction in infarct volume at 10 mg/kg/hr, iv administered prior to reperfusion; parameters: scale not given: the % may be the effect or the level left
[9] = system: Rattus norvegicus; assay: Cardioprotective effect in rat ischemia/reperfusion-induced myocardial infarction model assessed as reduction in infarct size at 20 mg/kg, iv administered 10 mins prior to reperfusion; parameters: scale not given: the % may be the effect or the level left
[10] = Biodistribution in human patient urine; format: ADME, organism-based; settings: in vivo
[11] = system: Homo sapiens; assay: Toxicity in iv infused human patients assessed as maximum tolerated dose; format: organism-based; settings: in vivo
[12] = Half life in iv dosed human patient; format: ADME, organism-based; settings: in vivo
[13] = molecular target: T1, Poly [ADP-ribose] polymerase 1; assay: Inhibition of PARP1 at 9.2 uM; parameters: scale not given: the % may be the effect or the level left
[14] = system: Liver microsomes; assay: Intrinsic clearance in human liver microsome; format: ADME
[15] = Ratio of drug level in brain to plasma in rat; format: ADME
[16] = Selectivity for […]
[17] = system: L1210; assay: Cytotoxicity against mouse L1210 cells; format: functional
[18] = in vivo; settings: rat, brain/plasma, 10 mg/kg
Description: Ratio of drug level in brain to plasma in rat at 10 mg/kg/hr after 6 hrs

[19] = system: Rattus norvegicus; assay: Cardioprotective effect in rat ischemia/reperfusion-induced myocardial infarction model assessed as reduction in infarct size at 3 mg/kg/hr, iv administered prior to reperfusion; format: functional, Myocardium; parameters: scale not given: the % may be the effect or the level left
[20] = system: Rattus norvegicus; assay: Cardioprotective effect in rat ischemia/reperfusion-induced myocardial infarction model assessed as reduction in infarct size at 3 mg/kg/hr, iv administered prior to reperfusion measured after 2 hrs; format: functional, Myocardium; parameters: scale not given: the % may be the effect or the level left
[21] = system: Rattus norvegicus; assay: Cardioprotective effect in rat ischemia/reperfusion-induced myocardial infarction model assessed as reduction in infarct size at 3 mg/kg/hr, iv administered prior to reperfusion measured after 4 hrs; format: functional, Myocardium; parameters: scale not given: the % may be the effect or the level left

T1 sequence (P09874 whole entry): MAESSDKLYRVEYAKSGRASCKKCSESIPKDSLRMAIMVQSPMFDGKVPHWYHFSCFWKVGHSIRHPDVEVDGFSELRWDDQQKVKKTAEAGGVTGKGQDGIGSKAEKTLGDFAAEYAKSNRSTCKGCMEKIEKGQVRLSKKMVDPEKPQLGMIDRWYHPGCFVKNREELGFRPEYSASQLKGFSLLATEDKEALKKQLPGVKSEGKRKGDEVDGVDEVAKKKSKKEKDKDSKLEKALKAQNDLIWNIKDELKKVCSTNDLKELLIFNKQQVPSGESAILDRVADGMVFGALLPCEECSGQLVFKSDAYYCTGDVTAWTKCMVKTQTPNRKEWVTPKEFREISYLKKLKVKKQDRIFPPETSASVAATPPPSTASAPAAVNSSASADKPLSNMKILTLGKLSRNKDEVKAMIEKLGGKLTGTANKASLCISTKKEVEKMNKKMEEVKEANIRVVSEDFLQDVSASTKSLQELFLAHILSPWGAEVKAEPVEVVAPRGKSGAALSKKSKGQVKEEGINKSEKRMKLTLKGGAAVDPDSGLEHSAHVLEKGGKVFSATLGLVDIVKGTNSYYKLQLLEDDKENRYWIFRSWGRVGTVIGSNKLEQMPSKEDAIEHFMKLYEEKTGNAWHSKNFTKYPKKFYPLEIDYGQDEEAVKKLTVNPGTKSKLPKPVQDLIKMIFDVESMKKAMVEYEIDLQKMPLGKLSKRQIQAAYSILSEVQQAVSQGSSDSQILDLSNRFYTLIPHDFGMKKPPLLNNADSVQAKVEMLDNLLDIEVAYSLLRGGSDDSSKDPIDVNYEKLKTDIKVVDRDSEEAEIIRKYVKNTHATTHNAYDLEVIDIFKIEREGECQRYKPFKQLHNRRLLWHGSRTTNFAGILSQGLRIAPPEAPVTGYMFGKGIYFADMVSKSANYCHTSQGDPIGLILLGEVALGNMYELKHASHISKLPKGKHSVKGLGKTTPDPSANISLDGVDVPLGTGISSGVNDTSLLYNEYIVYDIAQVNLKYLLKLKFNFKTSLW
Poly [ADP-ribose] polymerase 2, sequence (Q9UGN5 whole entry, the tested form may be a part): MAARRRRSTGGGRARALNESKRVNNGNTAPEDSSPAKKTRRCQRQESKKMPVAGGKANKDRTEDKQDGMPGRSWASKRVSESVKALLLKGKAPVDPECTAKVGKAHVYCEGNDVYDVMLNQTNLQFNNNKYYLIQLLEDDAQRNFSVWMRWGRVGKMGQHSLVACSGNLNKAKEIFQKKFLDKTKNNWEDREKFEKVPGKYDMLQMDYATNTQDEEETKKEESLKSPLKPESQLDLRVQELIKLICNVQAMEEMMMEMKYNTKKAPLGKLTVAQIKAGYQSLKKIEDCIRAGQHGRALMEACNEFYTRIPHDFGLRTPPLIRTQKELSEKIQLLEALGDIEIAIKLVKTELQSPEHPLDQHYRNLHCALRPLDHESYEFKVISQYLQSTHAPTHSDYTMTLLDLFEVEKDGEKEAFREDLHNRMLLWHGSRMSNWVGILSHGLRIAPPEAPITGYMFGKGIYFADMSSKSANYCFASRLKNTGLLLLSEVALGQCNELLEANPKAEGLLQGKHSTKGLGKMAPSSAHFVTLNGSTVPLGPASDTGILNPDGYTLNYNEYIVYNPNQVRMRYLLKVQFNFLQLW

In the case of `O=c1[nH]cnc2ccccc12` [QUINAZOLINONE], the IC50 [1] is reported as 15.8 µM.

`CN(C)Cc1ccc(-c2cc3cccc4c3n2CCNC4=O)cc1` gave a PF50 [2] of 3.8.

`CN(C)Cc1ccc(-c2nc3cccc4c3n2CCNC4=O)cc1` gave a PF50 [2] of 5.5.

For `CN1CCN(c2ccc3nc(O)c4ccccc4c3n2)CC1`, the Activity [3] was 25% and the Activity [4] was 44%.

With `NC(=O)c1ccc(I)c([N+](=O)[O-])c1` [INIPARIB] the half-life [5] was 4 min.

For `OC[C@H]1O[C@@H](n2cnc3c(O)ncnc32)[C@H](O)[C@@H]1O` [INOSINE], the half-life [6] was 7.5 h.

For `O=c1[nH]cc(-c2ccccc2)c2ccccc12`, the IC50 [1] was 0.89 µM.

`O=c1[nH]c(CCCN2CC=C(c3ccc(F)cc3)CC2)nc2c(Cl)cccc12` showed an IC50 [7] of 0.5 µM.

`CCc1cc2cc(C(CCN3CCCCC3)Cc3ccc4c(c3)OCCO4)ccc2[nH]c1=O` (centres undefined) gave an IC50 [1] of 0.0092 µM.

`Nc1ncnc2c1ncn2[C@@H]1O[C@H](C(=O)N2CCN(CC(=O)Nc3cccc4c3CNC4=O)CC2)[C@@H](O)[C@H]1O` gave an Activity [8] of 57% and an Activity [9] of 35%.

`CNCc1ccc(-c2[nH]c3cc(F)cc4c3c2CCNC4=O)cc1` [RUCAPARIB] gave a Drug uptake [10] of 11%, an MTD [11] of 200 mg/m2 and a half-life [12] of 9.5 h.

In the case of `O=c1[nH]ccc2c(Br)cccc12`, the IC50 [1] is reported as 0.27 µM.

`NC(=O)c1cccc(C2CO2)c1` (centres undefined) showed an Activity [13] of 88% and an IC50 [1] of 1 µM.

Compound `O=C1CCC(=O)N1c1cc(Cc2n[nH]c(=O)c3ccccc23)ccc1F` has a CL [14] of under 1 mL/min/g.

Work on `Cc1nc2cccc(Cl)c2c(=O)[nH]1` yielded a Kp [15] of 0.82.

Work on `O=C1NCCc2c(-c3ccc(CN4CCCC4)cc3)[nH]c3cccc1c23` yielded a PF50 [2] of 7.8.

`N#Cc1ccc(-c2cnc3cccc(C(N)=O)c3n2)cc1` gave an IC50 [7] of 0.008 µM and a Selectivity ratio [16] of 10.

With `Cc1nc2c(O)cccc2c(=O)[nH]1` the Activity [17] was 90%.

For `CN(C)Cc1ccc(-c2c[nH]c(=O)c3cccc(O)c23)cc1`, the Kp at 6 h [18] was 0.8, the Activity [19] was 57% and the Activity [20] was 50%. It also gave an Activity [21] of 47%.

`NC(=O)c1cccc2[nH]cnc12` showed an IC50 [1] of 0.24 µM.
